Legend:
[1] = system: LNCaP tumor transplanted mice; experiment: In vivo radioactivity distribution using LNCaP tumor transplanted mice
Experimental: (§1) Animal experiments were performed in accordance with the guidelines of Kyoto University Animal Experiment Committee. Male CB17/IcrJcl-Prkdc^scid mice were purchased from CLEA Japan, Inc. The animals were raised under 12 h/12 h day/night cycle conditions and freely fed with food and water. LNCaP cells (1.0×10^7 cells/mouse) or PC-3 cells (1.0×10^7 cells/mouse) were suspended in a mixed liquid (1:1,150 μL) of PBS and Matrigel manufactured by Corning Life Sciences Inc., and the suspension was subcutaneously transplanted to the right shoulder of each of the mice under isoflurane anesthesia. Thereafter, the mice were raised for 40 to 60 days.
(§2) A saline solution (185 kBq, 100 μL) of [^111In]In-PSMA-DA1 or [^111In]In-PSMA-DB was injected into each of LNCaP or PC-3 tumor transplanted mice via the tail vein thereof (n=3 in each group). The mice were euthanized 1, 4, 24, 48, 96, and 192 hours after the injection. Thereafter, blood and organs were collected, and the mass and radioactivity of each of the organs were measured.
A result thereof is indicated as a value (% ID/g) obtained by dividing the percentage (% ID) of the amount of radioactivity with respect to the amount of injected radioactivity (injected dose) by the mass of blood or the mass of an organ (g). […]

[2] = molecular target: human serum albumin (HSA) (Homo sapiens, UniProt P02768); experiment: Evaluation of binding to albumin (spin column), HSA solution and PBS; settings: FIG. 5
Experimental: Thereafter, the reaction liquid was added to a spin column (Sephadex G-100 manufactured by Cytiva), and centrifuged at 1500×g at 4° C. for two minutes. After the separation, the radioactivity of each of the column and the eluate was measured with a gamma counter.
Data was expressed as mean±standard deviation. A significant difference test was performed using Student's t-test, and a result of p<0.05 was defined to have a significant difference.
The higher a value, the higher binding property to albumin.
Thereafter, the reaction liquid was added to a spin column (Sephadex G-100 manufactured by Cytiva), and centrifuged at 1500×g at 4° C. for two minutes. After the centrifugation, the radioactivity of each of the column and the eluate was measured with a gamma counter.

[3] = system: PC-3 tumor transplanted mice; experiment: In vivo radioactivity distribution using PC-3 tumor transplanted mice
Experimental: as §1, §2
A result thereof is indicated as a value (% ID/g) obtained by dividing the percentage (% ID) of the amount of radioactivity with respect to the amount of injected radioactivity (injected dose) by the mass of blood or the mass of an organ (g).

[4] = system: LNCaP tumor transplanted mice; experiment: SPECT/CT using LNCaP tumor transplanted mice; assay type: in vivo; settings: FIG. 7
Experimental: A saline solution (1.9 to 3.0 MBq, 150 μL) of [^111In]In-PSMA-DA1 or [^111In]In-PSMA-DB was injected into each of the LNCaP tumor transplanted mice generated by the above-described method via the tail vein thereof. SPECT/CT was performed with an FX3300 pre-clinical imaging system manufactured by Gamma Medica-Ideas 24 and 48 hours after the injection. Imaging was performed under isoflurane anesthesia using a pinhole collimator with a diameter of 1.0 mm at a rotation radius of 35 mm, a scan time of 70 seconds, and the number of times of imaging of 32. After SPECT, CT (tube voltage: 60 kV, tube current: 350 μA) was performed. Image reconstruction by a three-dimensional ordered subset expectation maximization method (8 subsets, 5 iterations) was performed on projection data of SPECT.
Results of SPECT/CT are illustrated in FIG. 7. In FIG. 7, a portion indicated by an arrow is a position where the tumor is present, and a portion indicated by a circle is a position where the kidney is present. The higher the SUV, the amount of radioactivity accumulated is large.

human serum albumin (HSA), sequence (P02768 25-609): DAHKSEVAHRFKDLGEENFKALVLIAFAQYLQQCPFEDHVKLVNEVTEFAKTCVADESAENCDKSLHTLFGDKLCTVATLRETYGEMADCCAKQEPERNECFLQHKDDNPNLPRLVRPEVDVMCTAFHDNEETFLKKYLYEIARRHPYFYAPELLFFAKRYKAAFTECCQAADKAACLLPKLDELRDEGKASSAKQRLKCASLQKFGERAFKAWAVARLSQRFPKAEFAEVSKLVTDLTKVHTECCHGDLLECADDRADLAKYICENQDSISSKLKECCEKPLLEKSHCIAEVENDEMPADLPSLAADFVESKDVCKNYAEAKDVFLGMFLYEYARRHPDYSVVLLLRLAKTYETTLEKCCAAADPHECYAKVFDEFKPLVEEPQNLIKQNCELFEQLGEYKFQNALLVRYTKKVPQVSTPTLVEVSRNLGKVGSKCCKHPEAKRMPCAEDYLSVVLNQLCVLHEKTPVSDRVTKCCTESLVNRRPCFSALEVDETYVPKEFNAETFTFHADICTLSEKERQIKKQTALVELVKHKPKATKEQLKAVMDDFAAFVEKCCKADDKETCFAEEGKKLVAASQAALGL

O=C([O-])CN1CCN(C(CCC(=O)NCCCC[C@H](NC(=O)N[C@@H](CCC(=O)O)C(=O)O)C(=O)O)C(=O)[O-])CCN(CC(=O)[O-])CCN(C(CCC(=O)Nc2ccccc2)C(=O)[O-])CC1.[111In+3] (stereo partly drawn) [[^111In]In-PSMA-DB]
Accumulation: Blood ([1]; 1 hour after injection): 3.33 ± 0.21 % ID/g
Accumulation: Brain ([1]; 1 hour after injection): 0.06 ± 0.01 % ID/g
Accumulation: Heart ([1]; 1 hour after injection): 0.87 ± 0.33 % ID/g
Accumulation: Intestinal ([1]; 1 hour after injection): 0.59 ± 0.14 % ID/g
Accumulation: Kidney ([1]; 1 hour after injection): 59.2 ± 35.2 % ID/g
Accumulation: LNCaP tumor ([1]; 1 hour after injection): 3.36 ± 0.04 % ID/g
Accumulation: Liver ([1]; 1 hour after injection): 0.91 ± 0.20 % ID/g
Accumulation: Lung ([1]; 1 hour after injection): 2.24 ± 0.60 % ID/g
Accumulation: Muscle ([1]; 1 hour after injection): 0.23 ± 0.68 % ID/g
Accumulation: Pancreas ([1]; 1 hour after injection): 0.74 ± 0.25 % ID/g
Accumulation: Spleen ([1]; 1 hour after injection): 3.05 ± 0.53 % ID/g
Accumulation: Stomach ([1]; 1 hour after injection): 0.10 ± 0.04 % ID
Accumulation: Blood ([1]; 4 hours after injection): 2.00 ± 0.29 % ID/g
Accumulation: Brain ([1]; 4 hours after injection): 0.05 ± 0.00 % ID/g
Accumulation: Heart ([1]; 4 hours after injection): 0.60 ± 0.08 % ID/g
Accumulation: Intestinal ([1]; 4 hours after injection): 1.05 ± 0.10 % ID/g
Accumulation: Kidney ([1]; 4 hours after injection): 22.7 ± 9.69 % ID/g
Accumulation: LNCaP tumor ([1]; 4 hours after injection): 2.50 ± 0.50 % ID/g
Accumulation: Liver ([1]; 4 hours after injection): 0.95 ± 0.05 % ID/g
Accumulation: Lung ([1]; 4 hours after injection): 1.56 ± 0.07 % ID/g
Accumulation: Muscle ([1]; 4 hours after injection): 0.21 ± 0.04 % ID/g
Accumulation: Pancreas ([1]; 4 hours after injection): 0.54 ± 0.22 % ID/g
Accumulation: Spleen ([1]; 4 hours after injection): 2.39 ± 0.05 % ID/g
Accumulation: Stomach ([1]; 4 hours after injection): 0.13 ± 0.03 % ID
Accumulation: Blood ([1]; 24 hours after injection): 0.68 ± 0.17 % ID/g
Accumulation: Brain ([1]; 24 hours after injection): 0.07 ± 0.02 % ID/g
Accumulation: Heart ([1]; 24 hours after injection): 0.43 ± 0.07 % ID/g
Accumulation: Intestinal ([1]; 24 hours after injection): 1.00 ± 0.44 % ID/g
Accumulation: Kidney ([1]; 24 hours after injection): 13.2 ± 2.41 % ID/g
Accumulation: LNCaP tumor ([1]; 24 hours after injection): 2.09 ± 0.39 % ID/g
Accumulation: Liver ([1]; 24 hours after injection): 1.55 ± 0.32 % ID/g
Accumulation: Lung ([1]; 24 hours after injection): 0.97 ± 0.15 % ID/g
Accumulation: Muscle ([1]; 24 hours after injection): 0.21 ± 0.07 % ID/g
Accumulation: Pancreas ([1]; 24 hours after injection): 0.71 ± 0.10 % ID/g
Accumulation: Spleen ([1]; 24 hours after injection): 3.37 ± 0.75 % ID/g
Accumulation: Stomach ([1]; 24 hours after injection): 0.16 ± 0.05 % ID
Accumulation: Blood ([1]; 48 hours after injection): 0.27 ± 0.16 % ID/g
Accumulation: Brain ([1]; 48 hours after injection): 0.03 ± 0.02 % ID/g
Accumulation: Heart ([1]; 48 hours after injection): 0.32 ± 0.05 % ID/g
Accumulation: Intestinal ([1]; 48 hours after injection): 0.79 ± 0.21 % ID/g
Accumulation: Kidney ([1]; 48 hours after injection): 8.58 ± 2.02 % ID/g
Accumulation: LNCaP tumor ([1]; 48 hours after injection): 1.69 ± 0.77 % ID/g
Accumulation: Liver ([1]; 48 hours after injection): 1.28 ± 0.16 % ID/g
Accumulation: Lung ([1]; 48 hours after injection): 0.66 ± 0.24 % ID/g
Accumulation: Muscle ([1]; 48 hours after injection): 0.15 ± 0.06 % ID/g
Accumulation: Pancreas ([1]; 48 hours after injection): 0.71 ± 0.17 % ID/g
Accumulation: Spleen ([1]; 48 hours after injection): 2.63 ± 0.83 % ID/g
Accumulation: Stomach ([1]; 48 hours after injection): 0.07 ± 0.02 % ID
Accumulation: Blood ([1]; 96 hours after injection): 0.14 ± 0.04 % ID/g
Accumulation: Brain ([1]; 96 hours after injection): 0.09 ± 0.05 % ID/g
Accumulation: Heart ([1]; 96 hours after injection): 0.40 ± 0.12 % ID/g
Accumulation: Intestinal ([1]; 96 hours after injection): 0.41 ± 0.17 % ID/g
Accumulation: Kidney ([1]; 96 hours after injection): 7.04 ± 3.28 % ID/g
Accumulation: LNCaP tumor ([1]; 96 hours after injection): 1.05 ± 0.03 % ID/g
Accumulation: Liver ([1]; 96 hours after injection): 1.59 ± 0.57 % ID/g
Accumulation: Lung ([1]; 96 hours after injection): 0.70 ± 0.15 % ID/g
Accumulation: Muscle ([1]; 96 hours after injection): 0.14 ± 0.08 % ID/g
Accumulation: Pancreas ([1]; 96 hours after injection): 0.85 ± 0.39 % ID/g
Accumulation: Spleen ([1]; 96 hours after injection): 2.82 ± 0.87 % ID/g
Accumulation: Stomach ([1]; 96 hours after injection): 0.10 ± 0.03 % ID
Accumulation: Blood ([1]; 192 hours after injection): 0.07 ± 0.03 % ID/g
Accumulation: Brain ([1]; 192 hours after injection): 0.04 ± 0.00 % ID/g
Accumulation: Heart ([1]; 192 hours after injection): 0.33 ± 0.01 % ID/g
Accumulation: Intestinal ([1]; 192 hours after injection): 0.13 ± 0.02 % ID/g
Accumulation: Kidney ([1]; 192 hours after injection): 3.47 ± 1.24 % ID/g
Accumulation: LNCaP tumor ([1]; 192 hours after injection): 0.83 ± 0.11 % ID/g
Accumulation: Liver ([1]; 192 hours after injection): 1.20 ± 0.09 % ID/g
Accumulation: Lung ([1]; 192 hours after injection): 0.67 ± 0.05 % ID/g
Accumulation: Muscle ([1]; 192 hours after injection): 0.14 ± 0.09 % ID/g
Accumulation: Pancreas ([1]; 192 hours after injection): 1.04 ± 0.18 % ID/g
Accumulation: Spleen ([1]; 192 hours after injection): 3.46 ± 0.32 % ID/g
Accumulation: Stomach ([1]; 192 hours after injection): 0.05 ± 0.00 % ID
Tumor accumulation compared with [^111In]In-PSMA-DA1 (in words) ([1]; LNCaP tumor): tumor accumulation lower than that of [^111In]In-PSMA-DA1
Tumor/kidney ratio compared with [^111In]In-PSMA-DA1 (in words) ([1]; at any time point): lower tumor/kidney ratio
Radioactivity in the eluate, PBS (in words) [2]: no significant radioactivity was observed in the eluate
Accumulation: Blood ([3]; 1 hour after injection): 1.92 ± 0.27 % ID/g
Accumulation: Brain ([3]; 1 hour after injection): 0.06 ± 0.00 % ID/g
Accumulation: Heart ([3]; 1 hour after injection): 0.49 ± 0.05 % ID/g
Accumulation: Intestinal ([3]; 1 hour after injection): 0.48 ± 0.04 % ID/g
Accumulation: Kidney ([3]; 1 hour after injection): 49.5 ± 12.6 % ID/g
Accumulation: Liver ([3]; 1 hour after injection): 0.62 ± 0.03 % ID/g
Accumulation: Lung ([3]; 1 hour after injection): 1.36 ± 0.23 % ID/g
Accumulation: Muscle ([3]; 1 hour after injection): 0.21 ± 0.08 % ID/g
Accumulation: PC-3 tumor ([3]; 1 hour after injection): 0.61 ± 0.06 % ID/g
Accumulation: Pancreas ([3]; 1 hour after injection): 0.44 ± 0.06 % ID/g
Accumulation: Spleen ([3]; 1 hour after injection): 2.57 ± 0.39 % ID/g
Accumulation: Stomach ([3]; 1 hour after injection): 0.12 ± 0.04 % ID
Accumulation in the PC-3 tumor compared with the LNCaP tumor (in words) ([3]; same time point): lower than accumulation thereof in the LNCaP tumor at the same time point
SPECT/CT radioactivity accumulation in the LNCaP tumor (in words) ([4]; 24 and 48 hours after the injection): radioactivity accumulation was also observed in the LNCaP tumor
SPECT/CT kidney versus tumor radioactivity (in words) [4]: the accumulation was lower than that in the kidney
